Measurements reported in US7326710B2, “Aralkyl formyl-alkyl piperazine derivatives and their uses as a cerebral nerve protective agent” (Shanghai Institute of Pharmaceutical Industry, priority 2002, dated 2008).
Read-outs that look alike come from different tables or passages of the source.

Legend:
NMDA receptor = test: Maximum contraction of isolated guinea pig longitudinal ileum muscle preparations induced by L-Glu; conditions: for excitation: concentration, direct excitation of the preparation; for Glu-like excited action: excite preparations directly and induce contraction; for antagonism % (restrain rate of contraction of preparations): compound 10^−5M, contraction induced by L-Glu
Source text: According to the literature (Luzzi, Br J Pharmacol, 95:1271, 1988), maximum contraction of isolated longitudinal ileomuscle preparations of guinea pig induced by L-Glu, were used to examine the activities of the compounds on the NMDA receptor.

[1] = tested on: anoxia induced by sodium nitrite in mice; test: Anti-cerebral anoxia in mice, anoxia induced by sodium nitrite; format: in vivo; conditions: sodium nitrite 225 mg/kg ip, compound 20 mg/kg sc; for ILS at 20 mg/kg: Mus musculus, sc
Experimental: The rates of the prolongation of 9 compounds (IV-2, 10, 23, 32, 34, 36, 39, 40, 41) were more than 50%, which indicated the effect of anti-cerebral anoxia. IV-23 and IV-2 prolonged the survival duration by 100% of the animals, showing remarkably protective action for cerebral anoxia. (Table 3)
One model was established to test the time needed for mice to die because of anoxia caused by sodium nitrite (225 mg/kg, ip). IV-23 (20 mg/kg, sc) can prolong the time for 100%, indicating significant anti-cerebral anoxic anoxia activity.

[2] = mice, read-out: Prolonging the survival duration (%)
[3] = read-out: Prolonging the survival duration (%), mice

With `O=C(CN1CCN(C(=O)c2ccccc2)CC1)c1ccccc1` [IV-1, N^1-benzoyl-N^4-phenacyl-piperazine] as the compound, how does the excitation (NMDA receptor; unit not given) read?
The excitation was 3 × 10^−6.

And the Glu-like excited action (NMDA receptor)?
Its Glu-like excited action is “could excite preparations directly”.

And the ILS at 20 mg/kg [1, 2]?
Its ILS at 20 mg/kg is 3%.

Which “antagonism % (restrain rate of contraction of preparations)” value (NMDA receptor) does the source give for `O=C(CN1CCN(CC(=O)c2ccccc2)CC1)c1ccccc1` [IV-2, N^1,N^4-diphenacyl-piperazine] here?
The value was 25%.

Which “antagonism % (restrain rate of contraction of preparations)” value (NMDA receptor) does the source give for `O=C(CN1CCN(C(=O)c2ccc([N+](=O)[O-])cc2)CC1)c1ccccc1` [IV-3, N^1-(4-nitrobenzoyl)-N^4-phenacyl-piperazine] here?
Its value is 37%.

And the ILS at 20 mg/kg [1, 2]?
The ILS at 20 mg/kg was 7%.

For `O=C(CN1CCN(CC(=O)c2ccc(Cl)cc2)CC1)c1ccccc1` [IV-5, N^1-phenacyl-N^4-(4-chlorophenacyl) piperazine], which “antagonism % (restrain rate of contraction of preparations)” value (NMDA receptor) is on record?
The value was 30%.

And the ILS at 20 mg/kg [1, 2]?
The ILS at 20 mg/kg was 22%.

Which “antagonism % (restrain rate of contraction of preparations)” value (NMDA receptor) does the source give for `O=C(CN1CCN(CC(=O)c2ccc(Cl)cc2)CC1)c1ccc(Cl)cc1` [IV-6, N^1,N^4-di (4-chlorophenacyl) piperazine] here?
The value was 25%.

And the ILS at 20 mg/kg [1, 2]?
The ILS at 20 mg/kg was 4%.

What does the source list for `O=C(CN1CCN(CC(=O)c2ccc3ccccc3c2)CC1)c1ccccc1` [IV-7, N^1-(2-naphthoylmethyl)-N^4-phenacyl-piperazine]?
antagonism % (restrain rate of contraction of preparations) (NMDA receptor): 25%; ILS at 20 mg/kg [1, 2]: 21%

How did the “antagonism % (restrain rate of contraction of preparations)” value (NMDA receptor) turn out when `CC(C(=O)c1ccccc1)N1CCN(CC(=O)c2ccccc2)CC1` (stereo not drawn) [IV-8, N^1-(1-benzoylethyl)-N^4-phenacyl-piperazine] was run?
Its value is 25%.

And the “Prolonging the survival duration (%)” value ([1]; mice)?
Its value is 21%.

Which results are given for `COc1ccc(C(=O)CN2CCN(CC(=O)c3ccccc3)CC2)cc1` [IV-9, N^1-phenacyl-N^4-(4-methoxyphenacyl) piperazine]?
excitation (NMDA receptor; unit not given): 10^−5; Glu-like excited action (NMDA receptor): could excite preparations directly; ILS at 20 mg/kg [1, 2]: 30%

`CC(C(=O)c1ccccc1)N1CCN(C(C)C(=O)c2ccccc2)CC1` (stereo not drawn) [IV-10, N^1,N^4-di (1-benzoylethyl) piperazine] was tested. Which excitation (NMDA receptor; unit not given) did it give?
The excitation was 10^−5.

What about the Glu-like excited action (NMDA receptor) of the same compound?
The Glu-like excited action was “could excite preparations directly”.

What about the ILS at 20 mg/kg [1, 3] of the same compound?
Its ILS at 20 mg/kg is over 50%.

For `CC(C(=O)c1ccccc1)N1CCN(CC(=O)c2ccccc2)CC1` (stereo not drawn) [IV-13, N^1-(1-benzoylethyl)-N^4-phenacyl-piperazine], which ILS at 20 mg/kg [1, 3] is on record?
Its ILS at 20 mg/kg is 32%.

`COc1ccc(C(=O)CN2CCN(C(=O)Cc3ccccc3O)CC2)cc1` [IV-16, N^1-(4-methoxyphenacyl)-N^4-[(2-hydroxy)phenylacetyl] piperazine] was tested. Which ILS at 20 mg/kg [1, 3] did it give?
Its ILS at 20 mg/kg is 30%.

With `CC(C(=O)c1ccccc1)N1CCN(C(=O)C(O)c2ccc(Cl)cc2)CC1` (stereo not drawn) [IV-17, N^1-(1-benzoylethyl)-N^4-[2-hydroxy-2-(4-chlorophenyl)acetyl] piperazine] as the compound, how does the ILS at 20 mg/kg [1, 3] read?
Its ILS at 20 mg/kg is 14%.

For `CC(C(=O)c1ccccc1)N1CCN(C(=O)Cc2ccccc2O)CC1` (stereo not drawn) [IV-18, N^1-(1-benzoylethyl)-N^4-[(2-hydroxy)phenylacetyl] piperazine], which ILS at 20 mg/kg [1, 3] is on record?
The ILS at 20 mg/kg was 25%.

Which ILS at 20 mg/kg [1, 2] does the source give for `O=C(CN1CCN(C(=O)C(O)c2ccc(Cl)cc2)CC1)c1ccccc1` (stereo not drawn) [IV-19, N^1-phenacyl-N^4-[2-hydroxy-2-(4-chlorophenyl)acetyl] piperazine] here?
The ILS at 20 mg/kg was 18%.

With `O=C(CN1CCN(CC(=O)c2ccccc2)CC1)Nc1ccccc1` [IV-24, N^1-phenacyl-N^4-[2-(phenylamino)-2-oxo-ethyl] piperazine] as the compound, how does the ILS at 20 mg/kg [1, 2] read?
The ILS at 20 mg/kg was 34%.

With `O=C(CN1CCN(CC(=O)NCc2ccccc2)CC1)NCc1ccccc1` [IV-25, N^1,N^4-di[2-(benzylamino)-2-oxo-ethyl] piperazine] as the compound, how does the ILS at 20 mg/kg [1, 2] read?
Its ILS at 20 mg/kg is 30%.

`CC(C(=O)c1ccccc1)N1CCN(CC(=O)NCc2ccccc2)CC1` (stereo not drawn) [IV-26, N^1-(1-benzoylethyl)-N^4-[2-(benzylamino)-2-oxo-ethyl] piperazine] was tested. Which ILS at 20 mg/kg [1, 3] did it give?
Its ILS at 20 mg/kg is 36%.

For `O=C(CN1CCN(CC(=O)c2ccccc2)CC1)NCc1ccc2c(c1)OCO2` [IV-32, N^1-phenacyl-N^4-[2-(3,4-methylenedioxybenzylamino)-2-oxo-ethyl] piperazine], which ILS at 20 mg/kg [1, 2] is on record?
The ILS at 20 mg/kg was over 50%.

`O=C(c1ccccc1)N1CCN(CC(O)c2ccccc2)CC1` (stereo not drawn) [IV-34, N^1-benzoyl-N^4-(2-phenylethyl-2-ol) piperazine] was tested. Which “antagonism % (restrain rate of contraction of preparations)” value (NMDA receptor) did it give?
The value was 25%.

How did the “Prolonging the survival duration (%)” value ([1]; mice) turn out when `O=C(CN1CCN(CC(O)c2ccccc2)CC1)NCc1ccccc1` (stereo not drawn) [IV-37, N^1-[2-(benzylamino)-2-oxo-ethyl]-N^4-(2-phenylethyl-2-ol) piperazine] was run?
Its value is 13%.

With `CC(C(=O)c1ccccc1)N1CCN(C(=O)[C@@H](O)c2ccccc2)CC1` (stereo partly drawn) [IV-44, N^1-(S-2-hydroxy-1-oxo-2-phenylethyl)-N^4-(1-benzoylethyl) piperazine] as the compound, how does the “Prolonging the survival duration (%)” value ([1]; mice) read?
The value was 3%.

For `N#Cc1cccc(CS(=O)(=O)N2CCN(CC(=O)c3ccccc3)CC2)c1` [IV-48, N^1-phenacyl-N^4-(3-cyanophenylmethylsulfonyl) piperazine], which ILS at 20 mg/kg [1, 2] is on record?
The ILS at 20 mg/kg was 16%.

Which “Prolonging the survival duration (%)” value ([1]; mice) does the source give for `COc1ccc2cc(C(=O)C(C)N3CCN(CC(=O)NC(C)c4ccccc4)CC3)ccc2c1Cl` (stereo not drawn) [IV-49, N^1-[1-(5-chloro-6-methoxy-2-naphthoyl)ethyl]-N^4-[2-(1-phenylethanamino)-2-oxo-ethyl] piperazine] here?
The value was 30%.

Which ILS at 20 mg/kg [1, 2] does the source give for `O=C(CN1CCN(S(=O)(=O)Cc2ccc(Oc3ccccc3)cc2)CC1)c1ccccc1` [IV-53, N^1-phenacyl-N^4-(4-phenoxybenzylsulfonyl) piperazine] here?
The ILS at 20 mg/kg was 15%.

With `O=C(CN1CCN(S(=O)(=O)Cc2ccccc2CS(=O)(=O)c2ccccc2)CC1)c1ccccc1` [IV-54, N^1-phenacyl-N^4-[2-(benzenesulfonylmethyl)benzylsulfonyl] piperazine] as the compound, how does the ILS at 20 mg/kg [1, 2] read?
Its ILS at 20 mg/kg is 25%.

`O=C(CN1CCN(S(=O)(=O)Cc2ccc(C(F)(F)F)cc2)CC1)c1ccccc1` [IV-55, N^1-phenacyl-N^4-(4-trifluoromethylbenzylsulfonyl) piperazine] was tested. Which ILS at 20 mg/kg [1, 2] did it give?
The ILS at 20 mg/kg was 4%.

How did the ILS at 20 mg/kg [1, 2] turn out when `O=C(CN1CCN(S(=O)(=O)Cc2ccc(-c3ccccc3)cc2)CC1)c1ccccc1` [IV-56, N^1-phenacyl-N^4-(4-phenylbenzylsulfonyl) piperazine] was run?
Its ILS at 20 mg/kg is 25%.

`N#Cc1ccccc1-c1ccc(CS(=O)(=O)N2CCN(CC(=O)c3ccccc3)CC2)cc1` [IV-58, N^1-phenacyl-N^4-[4-(2-cyanophenyl)benzylsulfonyl] piperazine] was tested. Which ILS at 20 mg/kg [1, 2] did it give?
The ILS at 20 mg/kg was 25%.

`N#Cc1ccccc1-c1ccc(CS(=O)(=O)N2CCN(CC(=O)NCc3ccccc3)CC2)cc1` [IV-61, N^1-[2-(benzylamino)-2-oxo-ethyl]-N^4-[4-(2-cyanophenyl)benzylsulfonyl] piperazine] was tested. Which ILS at 20 mg/kg [1, 2] did it give?
The ILS at 20 mg/kg was 22%.

For `O=C(CN1CCN(S(=O)(=O)Cc2ccccc2CS(=O)(=O)c2ccccc2)CC1)NCc1ccccc1` [IV-62, N^1-[2-(benzylamino)-2-oxo-ethyl]-N^4-[2-(benzenesulfonylmethyl)benzylsulfonyl] piperazine], which ILS at 20 mg/kg [1, 2] is on record?
The ILS at 20 mg/kg was 36%.

`O=C(CN1CCN(S(=O)(=O)Cc2ccc([N+](=O)[O-])cc2)CC1)NCc1ccccc1` [IV-64, N^1-[2-(benzylamino)-2-oxo-ethyl]-N^4-(4-nitrobenzylsulfonyl) piperazine] was tested. Which ILS at 20 mg/kg [1, 2] did it give?
The ILS at 20 mg/kg was 20%.

How did the “antagonism % (restrain rate of contraction of preparations)” value (NMDA receptor) turn out when `CC(C(O)c1ccc(O)cc1)N1CCC(Cc2ccccc2)CC1` (stereo not drawn) [Ifenprodil, reference compound] was run?
The value was 41%(10^−5).

How did the “antagonism (value printed as a concentration in the antagonism % column)” value (NMDA receptor; positive control, unit not given) turn out when `CNC1(c2ccccc2Cl)CCCCC1=O` (stereo not drawn) [Ket, Ketamine, reference compound] was run?
The value was 5.61 × 10^−7.

Which excitation (NMDA receptor; unit not given) does the source give for `N[C@@H](CCC(=O)O)C(=O)O` [L-Glu, reference compound] here?
The excitation was 3.89 × 10^−5.
